Patent publication EP2998294A1, “Naphthyl sulfonamide phenyl derivatives as KEAP-1 modulators for the treatment of diabetes, obesity, dyslipidemia and related disorders” (SANOFI, priority 2014, dated 2016)

Each molecule was assayed against T1, human Keap1 kelch domain (amino acids Ala321-Thr609) (Homo sapiens, UniProt Q14145) (assay: Keap1-Nrf2 peptide binding assay (fluorescence polarisation)). Settings: binding of Keap1 kelch domain (20 nM) to fluorescently labeled Nrf2 peptide (50 nM).
T1 construct: human Keap1 kelch domain (amino acids Ala321-Thr609)
T1 sequence (Q14145 321-609): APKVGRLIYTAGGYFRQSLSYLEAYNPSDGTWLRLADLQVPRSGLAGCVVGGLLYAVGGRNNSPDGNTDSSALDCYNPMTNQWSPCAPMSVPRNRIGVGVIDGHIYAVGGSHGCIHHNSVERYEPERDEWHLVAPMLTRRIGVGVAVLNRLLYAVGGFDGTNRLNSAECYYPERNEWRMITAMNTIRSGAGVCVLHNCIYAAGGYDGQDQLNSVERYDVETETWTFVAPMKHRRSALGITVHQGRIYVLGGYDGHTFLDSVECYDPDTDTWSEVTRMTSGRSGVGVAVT
Protocol: A fluorescence polarisation assay was used to measure binding of the human Keap1 kelch domain (amino acids Ala321-Thr609) to a fluorescently labeled peptide containing a Keap1 binding site of human Nrf2 (Alexa633-AFFAQLQLDEETGEFL; JPT Technologies, Berlin, Germany). Two microliters of test compound in reaction buffer (phosphate-buffered saline, 2 mM DL-dithiothreitol, 0.015 % (v/v) Brij-35) containing 6 % (v/v) DMSO were mixed with two microliters of the Keap1 kelch domain in reaction buffer in a black 384-well small volume microtiter plate and incubated at ambient temperature for 15 minutes. Thereafter, two microliters were added of the fluorescently labeled Nrf2 peptide in reaction buffer, and the mixture was incubated for a further 30 minutes at ambient temperature. Final concentrations of the Keap1 kelch domain and the fluorescently labeled Nrf2 peptide were 20 nM and 50 nM, respectively.
Fluorescence polarization (FP) was measured at excitation and emission wavelengths of 635 nm and 660 nm, respectively. Positive controls for binding (two microliters of reaction buffer containing 6 % (v/v) DMSO instead of test compound in the same buffer) and negative controls (as positive controls, but without Keap1 kelch domain) were included on each microtiter plate. Data were expressed as percent-inhibition values: percentinhibition = 100⋅(1-(|FPcompound-FPnegative controle|)/(|FPpositive controle-FPnegative controle|)) [formula]
IC50 values were determined by testing different compound concentrations and fitting the resulting percent-inhibition values to the following equation using XLFit4: percentinhibition = A + (B-A)/(1 + (((IC50)/([Compound])))^D) [formula]
Parameter A was set to zero, pre-fit values for parameters B and D were set to 100 and 1, respectively.

Structure (SMILES)	IC50 [nM]
O=C(O)c1ccc(F)c(-c2ccc(NS(=O)(=O)c3c(Cl)cc(C(F)(F)F)cc3Cl)c3ccccc23)c1 [Example 81, 3-[4-[[2,6-dichloro-4-(trifluoromethyl)phenyl]sulfonylamino]-1-naphthyl]-4-fluoro-benzoic acid]	700
Cc1ccc(Cl)cc1S(=O)(=O)Nc1ccc(-c2cc(C(=O)O)ccc2F)c2ccccc12 [Example 87, 3-[4-[(5-chloro-2-methylphenyl)sulfonylamino]-1-naphthyl]-4-fluorobenzoic acid]	1000
O=C(O)c1ccc(F)c(-c2ccc(NS(=O)(=O)c3cc(F)cc(F)c3Cl)c3ccccc23)c1 [Example 92, 3-[4-[(2-chloro-3,5-difluorophenyl)sulfonylamino]-1-naphthyl]-4-fluorobenzoic acid]	5300

Same assay, conditions: binding of Keap1 kelch domain (20 nM) to fluorescently labeled Nrf2 peptide (50 nM); read-out: IC50

IC50 [nM]	Structure (SMILES)
4400	O=C(O)c1ccc(F)c(-c2ccc(NS(=O)(=O)c3ccc(Cl)c(C(F)(F)F)c3)c3ccccc23)c1 [Example 75, 3-[4-[[4-chloro-3-(trifluoromethyl)phenyl]sulfonylamino]-1-naphthyl]-4-fluoro-benzoic acid]
2400	O=C(O)c1ccc(F)c(-c2ccc(NS(=O)(=O)c3cc(Cl)ccc3Cl)c3ccccc23)c1 [Example 76, 3-[4-[(2,5-dichlorophenyl)sulfonylamino]-1-naphthyl]-4-fluoro-benzoic acid]
3700	Cc1c(S(=O)(=O)Nc2ccc(-c3cc(C(=O)O)ccc3F)c3ccccc23)cnn1-c1ccccc1 [Example 77, 4-fluoro-3-[4-[(5-methyl-1-phenyl-pyrazol-4-yl)sulfonylamino]-1-naphthyl]benzoic acid]
9700	Cn1cc(S(=O)(=O)Nc2ccc(-c3cc(C(=O)O)ccc3F)c3ccccc23)c(C(F)(F)F)n1 [Example 78, 4-fluoro-3-[4-[[1-methyl-3-(trifluoromethyl)pyrazol-4-yl]sulfonylamino]-1-naphthyl]benzoic acid]
400	Cc1nn(C)c(C)c1S(=O)(=O)Nc1ccc(-c2cc(C(=O)O)ccc2F)c2ccccc12 [Example 79, 4-fluoro-3-[4-[(1,3,5-trimethylpyrazol-4-yl)sulfonylamino]-1-naphthyl]benzoic acid]
1900	Cc1nc(C)c(S(=O)(=O)Nc2ccc(-c3cc(C(=O)O)ccc3F)c3ccccc23)s1 [Example 80, 3-[4-[(2,4-dimethylthiazol-5-yl)sulfonylamino]-1-naphthyl]-4-fluorobenzoic acid]
5100	O=C(O)c1ccc(F)c(-c2ccc(NS(=O)(=O)c3cc(F)c(F)cc3Cl)c3ccccc23)c1 [Example 82, 3-[4-[(2-chloro-4,5-difluorophenyl)sulfonylamino]-1-naphthyl]-4-fluorobenzoic acid]
2200	COc1ccc(S(=O)(=O)Nc2ccc(-c3cc(C(=O)O)ccc3F)c3ccccc23)c(OC)c1 [Example 83, 3-[4-[(2,4-dimethoxyphenyl)sulfonylamino]-1-naphthyl]-4-fluoro-benzoic acid]
1700	Cc1c(S(=O)(=O)Nc2ccc(-c3cc(C(=O)O)ccc3F)c3ccccc23)cnn1CC(C)C [Example 84, 4-fluoro-3-[4-[(1-isobutyl-5-methyl-pyrazol-4-yl)sulfonylamino]-1-naphthyl]benzoic acid]
900	O=C(O)c1ccc(F)c(-c2ccc(NS(=O)(=O)c3cc(Cl)sc3Cl)c3ccccc23)c1 [Example 85, 3-[4-[(2,5-dichloro-3-thienyl)sulfonylamino]-1-naphthyl]-4-fluoro-benzoic acid]
1500	Cc1nn(-c2ccccc2)c(C)c1S(=O)(=O)Nc1ccc(-c2cc(C(=O)O)ccc2F)c2ccccc12 [Example 86, 3-[4-[(3,5-dimethyl-1-phenyl-pyrazol-4-yl)sulfonylamino]-1-naphthyl]-4-fluorobenzoic acid]
1300	Cc1cc(S(=O)(=O)Nc2ccc(-c3cc(C(=O)O)ccc3F)c3ccccc23)c(Cl)cc1Cl [Example 88, 3-[4-[(2,4-dichloro-5-methylphenyl)sulfonylamino]-1-naphthyl]-4-fluorobenzoic acid]
2500	COc1cc(C)ccc1S(=O)(=O)Nc1ccc(-c2cc(C(=O)O)ccc2F)c2ccccc12 [Example 89, 4-fluoro-3-[4-[(2-methoxy-4-methylphenyl)sulfonylamino]-1-naphthyl]benzoic acid]
1200	Cc1c(S(=O)(=O)Nc2ccc(-c3cc(C(=O)O)ccc3F)c3ccccc23)cnn1C1CCCC1 [Example 90, 3-[4-[(1-cyclopentyl-5-methyl-pyrazol-4-yl)sulfonylamino]-1-naphthyl]-4-fluorobenzoic acid]
2200	COc1ccc(F)c(S(=O)(=O)Nc2ccc(-c3cc(C(=O)O)ccc3F)c3ccccc23)c1 [Example 91, 4-fluoro-3-[4-[(2-fluoro-5-methoxyphenyl)sulfonylamino]-1-naphthyl]benzoic acid]
6500	Cc1c(S(=O)(=O)Nc2ccc(-c3cc(C(=O)O)ccc3F)c3ncccc23)sc2ccc(Cl)cc12 [Example 93, 3-[5-[(5-chloro-3-methyl-benzothiophen-2-yl)sulfonylamino]-8-quinolyl]-4-fluoro-benzoic acid]
3000	Cc1c(S(=O)(=O)Nc2ccc(-c3cc(C(=O)O)ccc3F)c3ncccc23)sc2cccc(F)c12 [Example 94, 4-fluoro-3-[5-[(4-fluoro-3-methyl-benzothiophen-2-yl)sulfonylamino]-8-quinolyl]benzoic acid]
2200	CCCCCCCCn1nc(C)c(S(=O)(=O)Nc2ccc(-c3cc(C(=O)O)ccc3F)c3ncccc23)c1C [Example 95, 3-[5-[(3,5-dimethyl-1-octyl-pyrazol-4-yl)sulfonylamino]-8-quinolyl]-4-fluorobenzoic acid]
900	Cc1c(S(=O)(=O)Nc2ccc(-c3cc(C(=O)O)ccc3F)c3ncccc23)c2ccccc2n1C [Example 96, 3-[5-[(1,2-dimethylindol-3-yl)sulfonylamino]-8-quinolyl]-4-fluoro-benzoic acid]
5500	Cn1ccc2c(S(=O)(=O)Nc3ccc(-c4cc(C(=O)O)ccc4F)c4ncccc34)cccc21 [Example 97, 4-fluoro-3-[5-[(1-methylindol-4-yl)sulfonylamino]-8-quinolyl]benzoic acid]
